Test results taken from US20240245682A1, “ALPHA-V-BETA-8 INTEGRIN INHIBITORS AND USES THEREOF” (Pliant Therapeutics, Inc., priority 2022, published 2024).

What was measured:
Experiment in all cases: AlphaScreen proximity-based integrin binding assay with TGF-b1 LAP
Conditions in all cases: values given as ranges
human integrin αVβ1 = human integrin αVβ1 (Homo sapiens, UniProt P05556+P06756)
Method: (§1) The biochemical potency of the disclosed compounds was determined using the AlphaScreen® (Perkin Elmer, Waltham, MA) proximity-based assay as described previously (Ullman E F et al., Luminescent oxygen channeling immunoassay: Measurement of particle binding kinetics by chemiluminescence. Proc. Natl. Acad. Sci. USA, Vol. 91, pp. 5426-5430, June 1994, herein incorporated by reference in its entirety). To gauge the potency of inhibitors of binding to each of human integrins αVβ1, αVβ6, and αVβ8, inhibitor compounds were independently incubated with one of αVβ1, αVβ6, or αVβ8, together with TGF-b1 LAP and biotinylated anti-LAP antibody plus acceptor and donor beads, following the manufacture's recommendations. The donor beads were coated with streptavidin. […] All incubations occurred at room temperatures in 50 mM Tris-HCl, pH 7.5, 0.1% BSA supplemented with 1 mM each CaCl2 and MgCl2.
(§2) The order of reagent addition was as follows:
(§3) 1. αVβ1, αVβ6, or αVβ8 integrin, test inhibitor compound, LAP, biotinylated anti-LAP antibody and acceptor beads were all added together.
(§4) 2. After 2 hours, donor beads were added. After another 30 minute incubation, samples were then read.
(§5) Integrin binding was evaluated by exciting donor beads at 680 nm, and measuring the fluorescent signal produced, between 520-620 nm, using a Biotek Instruments (Winooski, VT, USA) SynergyNeo2 multimode plate reader. Compound potency was assessed by determining inhibitor concentrations required to reduce fluorescent light output by 50%. Data analysis for IC50 determinations was carried out by nonlinear four parameter logistic regression analysis using Dotmatics ELN Software (Core Informatics Inc., Branford, Ct). […] Comp #in the Table and Examples below refers to the compound of the corresponding Example number as described in the Synthetic Examples.

human integrin αVβ6 = human integrin αVβ6 (Homo sapiens, UniProt P06756+P18564)
human integrin αVβ6, sequence (P06756 31-992 limits assumed): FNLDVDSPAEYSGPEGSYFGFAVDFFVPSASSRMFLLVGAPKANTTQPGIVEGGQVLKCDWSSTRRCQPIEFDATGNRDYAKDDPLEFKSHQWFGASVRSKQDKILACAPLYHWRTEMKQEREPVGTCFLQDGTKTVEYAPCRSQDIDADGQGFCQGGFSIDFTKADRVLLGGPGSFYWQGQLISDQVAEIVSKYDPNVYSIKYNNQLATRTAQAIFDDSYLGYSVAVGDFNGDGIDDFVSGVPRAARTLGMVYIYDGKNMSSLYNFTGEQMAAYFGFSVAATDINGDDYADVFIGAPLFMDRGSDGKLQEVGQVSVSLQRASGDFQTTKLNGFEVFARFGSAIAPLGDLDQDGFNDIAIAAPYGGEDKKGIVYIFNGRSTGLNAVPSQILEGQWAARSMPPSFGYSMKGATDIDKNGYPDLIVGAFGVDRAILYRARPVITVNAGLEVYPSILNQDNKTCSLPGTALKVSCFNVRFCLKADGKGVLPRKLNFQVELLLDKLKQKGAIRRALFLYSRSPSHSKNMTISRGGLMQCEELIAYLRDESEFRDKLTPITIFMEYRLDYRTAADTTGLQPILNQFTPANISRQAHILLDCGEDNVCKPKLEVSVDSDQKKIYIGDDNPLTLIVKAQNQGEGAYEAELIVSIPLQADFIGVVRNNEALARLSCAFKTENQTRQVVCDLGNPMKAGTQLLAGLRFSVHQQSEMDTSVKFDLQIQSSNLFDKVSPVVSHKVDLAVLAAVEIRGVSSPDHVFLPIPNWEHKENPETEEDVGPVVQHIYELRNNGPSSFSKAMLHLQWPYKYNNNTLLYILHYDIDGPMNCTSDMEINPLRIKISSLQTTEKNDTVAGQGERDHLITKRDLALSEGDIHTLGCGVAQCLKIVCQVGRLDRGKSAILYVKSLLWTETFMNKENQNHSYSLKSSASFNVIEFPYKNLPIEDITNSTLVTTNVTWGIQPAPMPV
human integrin αVβ6, sequence (P18564 22-707 limits assumed): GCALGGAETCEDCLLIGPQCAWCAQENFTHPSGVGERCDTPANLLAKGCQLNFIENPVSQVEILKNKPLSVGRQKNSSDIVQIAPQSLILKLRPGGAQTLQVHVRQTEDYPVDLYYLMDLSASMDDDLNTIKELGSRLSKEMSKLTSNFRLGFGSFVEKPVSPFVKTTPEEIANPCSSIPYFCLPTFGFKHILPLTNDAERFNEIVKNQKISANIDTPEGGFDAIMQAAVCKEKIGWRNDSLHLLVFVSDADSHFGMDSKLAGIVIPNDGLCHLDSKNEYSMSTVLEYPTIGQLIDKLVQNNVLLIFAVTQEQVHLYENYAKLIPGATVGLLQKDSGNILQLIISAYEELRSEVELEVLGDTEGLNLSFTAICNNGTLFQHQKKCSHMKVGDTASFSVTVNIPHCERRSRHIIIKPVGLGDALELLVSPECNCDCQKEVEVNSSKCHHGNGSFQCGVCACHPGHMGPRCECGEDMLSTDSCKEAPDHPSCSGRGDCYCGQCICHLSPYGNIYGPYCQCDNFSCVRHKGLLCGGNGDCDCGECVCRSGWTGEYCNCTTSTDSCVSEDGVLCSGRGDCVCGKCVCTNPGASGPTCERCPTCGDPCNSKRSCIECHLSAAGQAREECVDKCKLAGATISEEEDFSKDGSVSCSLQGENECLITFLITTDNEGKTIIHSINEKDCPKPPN
Method: as §1, §2, §3, §4, §5

human integrin αVβ8 = human integrin αVβ8 (Homo sapiens, UniProt P06756+P26012)
human integrin αVβ8, sequence (P06756 31-992 limits assumed): as the sequence (P06756 31-992 limits assumed) above
human integrin αVβ8, sequence (P26012 43-684 limits assumed): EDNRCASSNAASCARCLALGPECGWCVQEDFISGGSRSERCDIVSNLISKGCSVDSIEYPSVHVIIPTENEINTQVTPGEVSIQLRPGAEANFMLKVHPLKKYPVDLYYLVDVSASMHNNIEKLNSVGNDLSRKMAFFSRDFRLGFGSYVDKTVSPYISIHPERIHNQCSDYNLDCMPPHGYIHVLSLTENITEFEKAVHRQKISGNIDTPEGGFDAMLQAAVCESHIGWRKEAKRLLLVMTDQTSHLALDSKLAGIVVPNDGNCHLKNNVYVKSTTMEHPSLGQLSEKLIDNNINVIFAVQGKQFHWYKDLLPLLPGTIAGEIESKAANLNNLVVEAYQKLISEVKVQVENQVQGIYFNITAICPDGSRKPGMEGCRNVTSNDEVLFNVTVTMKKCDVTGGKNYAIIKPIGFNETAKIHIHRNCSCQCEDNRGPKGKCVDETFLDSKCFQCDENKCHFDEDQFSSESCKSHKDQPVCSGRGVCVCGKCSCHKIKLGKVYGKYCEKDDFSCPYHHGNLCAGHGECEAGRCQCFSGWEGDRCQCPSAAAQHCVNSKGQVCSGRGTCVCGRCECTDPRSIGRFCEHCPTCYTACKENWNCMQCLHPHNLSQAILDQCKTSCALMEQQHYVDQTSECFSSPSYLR
Method: as §1, §2, §3, §4, §5

human integrin αVβ1, sequence (P06756 31-992 limits assumed): as the sequence (P06756 31-992 limits assumed) above
human integrin αVβ1, sequence (P05556 21-728 limits assumed): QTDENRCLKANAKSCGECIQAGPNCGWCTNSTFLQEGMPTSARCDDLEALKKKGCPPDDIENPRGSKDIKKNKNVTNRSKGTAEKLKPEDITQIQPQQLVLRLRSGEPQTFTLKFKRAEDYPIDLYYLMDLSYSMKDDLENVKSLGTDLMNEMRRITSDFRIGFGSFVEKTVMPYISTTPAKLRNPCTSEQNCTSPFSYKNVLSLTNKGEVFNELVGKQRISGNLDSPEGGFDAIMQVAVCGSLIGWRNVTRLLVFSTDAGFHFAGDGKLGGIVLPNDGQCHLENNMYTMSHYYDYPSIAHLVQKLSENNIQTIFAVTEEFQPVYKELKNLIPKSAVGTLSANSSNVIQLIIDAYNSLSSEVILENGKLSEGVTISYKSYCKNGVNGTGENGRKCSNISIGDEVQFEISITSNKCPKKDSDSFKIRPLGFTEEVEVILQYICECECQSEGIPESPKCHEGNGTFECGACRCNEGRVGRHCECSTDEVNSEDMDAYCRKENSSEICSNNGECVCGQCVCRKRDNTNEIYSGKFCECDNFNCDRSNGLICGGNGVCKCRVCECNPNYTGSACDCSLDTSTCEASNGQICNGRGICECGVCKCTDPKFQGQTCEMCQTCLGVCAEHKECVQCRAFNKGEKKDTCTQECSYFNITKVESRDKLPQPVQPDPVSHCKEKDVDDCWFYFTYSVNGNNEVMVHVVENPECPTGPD

| Structure (SMILES) | IC50 (human integrin αVβ1) [nM] | IC50 (human integrin αVβ6) [nM] | IC50 (human integrin αVβ8) [nM] |
| --- | --- | --- | --- |
| O=C(O)[C@H](CCOCCCCc1ccc2c(n1)NCCC2)NC(=O)C1(c2ncccc2Cl)CC1 [Compound 15, N-(1-(3-chloropyridin-2-yl)cyclopropane-1-carbonyl)-O-(4-(5,6,7,8-tetrahydro-1,8-naphthyridin-2-yl)butyl)-L-homoserine] | < 50 | ≥ 500 | < 50 |
| CC(C)(C(=O)N[C@@H](CCOCCCCc1ccc2c(n1)NCCC2)C(=O)O)c1ccccc1Cl [Compound 8, N-(2-(2-chlorophenyl)-2-methylpropanoyl)-O-(4-(5,6,7,8-tetrahydro-1,8-naphthyridin-2-yl)butyl)-L-homoserine] | < 50 | ≥ 500 | 50 to 150 |
| O=C(O)[C@H](CCOCCCCc1ccc2c(n1)NCCC2)NC(=O)C1(c2ncc(F)cc2Cl)CC1 [Compound 14, N-(1-(3-chloro-5-fluoropyridin-2-yl)cyclopropane-1-carbonyl)-O-(4-(5,6,7,8-tetrahydro-1,8-naphthyridin-2-yl)butyl)-L-homoserine] | < 50 | ≥ 500 | < 50 |
| CC(C)(C(=O)N[C@@H](CCOCCCCc1ccc2c(n1)NCCC2)C(=O)O)c1cc(F)cnc1Cl [Compound 23, N-(2-(2-chloro-5-fluoropyridin-3-yl)-2-methylpropanoyl)-O-(4-(5,6,7,8-tetrahydro-1,8-naphthyridin-2-yl)butyl)-L-homoserine] | < 50 | 250 to 500 | 50 to 150 |
| O=C(O)[C@H](CCOCCCCc1ccc2c(n1)NCCC2)NC(=O)C1(c2c(Cl)cncc2Cl)CC1 [Compound 24, N-(1-(3,5-dichloropyridin-4-yl)cyclopropane-1-carbonyl)-O-(4-(5,6,7,8-tetrahydro-1,8-naphthyridin-2-yl)butyl)-L-homoserine] | < 50 | 50 to 150 | < 50 |
| N#Cc1cc(F)ccc1C1(C(=O)N[C@@H](CCOCCCCc2ccc3c(n2)NCCC3)C(=O)O)CC1 [Compound 43, N-(1-(2-cyano-4-fluorophenyl)cyclopropane-1-carbonyl)-O-(4-(5,6,7,8-tetrahydro-1,8-naphthyridin-2-yl)butyl)-L-homoserine] | < 50 | ≥ 500 | < 50 |
| COc1ncc(F)cc1C1(C(=O)N[C@@H](CCOCCCCc2ccc3c(n2)NCCC3)C(=O)O)CC1 [Compound 33, N-(1-(5-fluoro-2-methoxypyridin-3-yl)cyclopropane-1-carbonyl)-O-(4-(5,6,7,8-tetrahydro-1,8-naphthyridin-2-yl)butyl)-L-homoserine] | < 50 | ≥ 500 | < 50 |
| O=C(O)[C@H](CCOCCCCc1ccc2c(n1)NCCC2)NC(=O)C1(c2ncnc3ccccc23)CC1 [Compound 31, N-(1-(quinazolin-4-yl)cyclopropane-1-carbonyl)-O-(4-(5,6,7,8-tetrahydro-1,8-naphthyridin-2-yl)butyl)-L-homoserine] | < 50 | ≥ 500 | < 50 |
| O=C(O)[C@H](CCOCCCCc1ccc2c(n1)NCCC2)NC(=O)C1(c2cncnc2)CC1 [Compound 22, N-(1-(pyrimidin-5-yl)cyclopropane-1-carbonyl)-O-(4-(5,6,7,8-tetrahydro-1,8-naphthyridin-2-yl)butyl)-L-homoserine] | < 50 | ≥ 500 | 150 to 250 |
| O=C(O)[C@H](CCOCCCCc1ccc2c(n1)NCCC2)NC(=O)C1(c2ncccc2C(F)F)CC1 [Compound 40, N-(1-(3-(difluoromethyl)pyridin-2-yl)cyclopropane-1-carbonyl)-O-(4-(5,6,7,8-tetrahydro-1,8-naphthyridin-2-yl)butyl)-L-homoserine] | < 50 | ≥ 500 | < 50 |
| COc1cncc(Cl)c1C1(C(=O)N[C@@H](CCOCCCCc2ccc3c(n2)NCCC3)C(=O)O)CC1 [Compound 34, N-(1-(3-chloro-5-methoxypyridin-4-yl)cyclopropane-1-carbonyl)-O-(4-(5,6,7,8-tetrahydro-1,8-naphthyridin-2-yl)butyl)-L-homoserine] | < 50 | ≥ 500 | < 50 |
| C[C@H](C(=O)N[C@@H](CCOCCCCc1ccc2c(n1)NCCC2)C(=O)O)c1ccccc1 [Compound 3, N—((S)-2-phenylpropanoyl)-O-(4-(5,6,7,8-tetrahydro-1,8-naphthyridin-2-yl)butyl)-L-homoserine] | < 50 | ≥ 500 | < 50 |
| CC(C)(C(=O)N[C@@H](CCOCCCCc1ccc2c(n1)NCCC2)C(=O)O)c1c(F)cccc1OC(F)F [Compound 5, N-(2-(2-(difluoromethoxy)-6-fluorophenyl)-2-methylpropanoyl)-O-(4-(5,6,7,8-tetrahydro-1,8-naphthyridin-2-yl)butyl)-L-homoserine] | < 50 | ≥ 500 | 50 to 150 |

Next, values leading:

| IC50 (human integrin αVβ1) [nM] | IC50 (human integrin αVβ6) [nM] | IC50 (human integrin αVβ8) [nM] | Structure (SMILES) |
| --- | --- | --- | --- |
| 150 to 250 | ≥ 500 | 50 to 150 | O=C(O)[C@H](CCOCCCCc1ccc2c(n1)NCCC2)NC(=O)C1(c2c(Cl)nc[nH]c2=O)CC1 [Compound 63, N-(1-(4-chloro-6-oxo-1,6-dihydropyrimidin-5-yl)cyclopropane-1-carbonyl)-O-(4-(5,6,7,8-tetrahydro-1,8-naphthyridin-2-yl)butyl)-L-homoserine] |
| < 50 | ≥ 500 | 50 to 150 | COc1nccnc1C1(C(=O)N[C@@H](CCOCCCCc2ccc3c(n2)NCCC3)C(=O)O)CC1 [Compound 50, N-(1-(3-methoxypyrazin-2-yl)cyclopropane-1-carbonyl)-O-(4-(5,6,7,8-tetrahydro-1,8-naphthyridin-2-yl)butyl)-L-homoserine] |
| < 50 | > 500 | < 50 | O=C(O)[C@H](CCOCCCCc1ccc2c(n1)NCCC2)NC(=O)C1(n2c(Br)cccc2=O)CC1 [Compound 94, N-(1-(6-bromo-2-oxopyridin-1(2H)-yl)cyclopropane-1-carbonyl)-O-(4-(5,6,7,8-tetrahydro-1,8-naphthyridin-2-yl)butyl)-L-homoserine] |
| < 50 | ≥ 500 | < 50 | O=C(O)[C@H](CCOCCCCc1ccc2c(n1)NCCC2)NC(=O)C1(n2ccnc2C(F)(F)F)CC1 [Compound 70, O-(4-(5,6,7,8-tetrahydro-1,8-naphthyridin-2-yl)butyl)-N-(1-(2-(trifluoromethyl)-1H-imidazol-1-yl)cyclopropane-1-carbonyl)-L-homoserine] |
| 50 to 150 | > 500 | 50 to 150 | Cc1ncnc(O)c1C1(C(=O)N[C@@H](CCOCCCCc2ccc3c(n2)NCCC3)C(=O)O)CC1 [Compound 102, N-(1-(4-hydroxy-6-methylpyrimidin-5-yl)cyclopropane-1-carbonyl)-O-(4-(5,6,7,8-tetrahydro-1,8-naphthyridin-2-yl)butyl)-L-homoserine] |
| 50 to 150 | > 500 | 50 to 150 | NC(=O)c1cccc(F)c1C1(C(=O)N[C@@H](CCOCCCCc2ccc3c(n2)NCCC3)C(=O)O)CC1 [Compound 95, N-(1-(2-carbamoyl-6-fluorophenyl)cyclopropane-1-carbonyl)-O-(4-(5,6,7,8-tetrahydro-1,8-naphthyridin-2-yl)butyl)-L-homoserine] |
| < 50 | ≥ 500 | < 50 | O=C(O)[C@H](CCOCCCCc1ccc2c(n1)NCCC2)NC(=O)C1(c2c(Cl)cn[nH]c2=O)CC1 [Compound 76, N-(1-(5-chloro-3-oxo-2,3-dihydropyridazin-4-yl)cyclopropane-1-carbonyl)-O-(4-(5,6,7,8-tetrahydro-1,8-naphthyridin-2-yl)butyl)-L-homoserine] |
| < 50 | ≥ 500 | 50 to 150 | O=C(O)[C@H](CCOCCCCc1ccc2c(n1)NCCC2)NC(=O)C1(n2cncc2C(F)F)CC1 [Compound 64, N-(1-(5-(difluoromethyl)-1H-imidazol-1-yl)cyclopropane-1-carbonyl)-O-(4-(5,6,7,8-tetrahydro-1,8-naphthyridin-2-yl)butyl)-L-homoserine] |
| < 50 | 250 to 500 | < 50 | O=C(O)[C@H](CCOCCCCc1ccc2c(n1)NCCC2)NC(=O)C1(C(F)(F)F)CCCCC1 [Compound 84, O-(4-(5,6,7,8-tetrahydro-1,8-naphthyridin-2-yl)butyl)-N-(1-(trifluoromethyl)cyclohexane-1-carbonyl)-L-homoserine] |
| < 50 | ≥ 500 | < 50 | O=C(O)[C@H](CCOCCCCc1ccc2c(n1)NCCC2)NC(=O)C1(c2[nH]ncc2Cl)CC1 [Compound 71, N-(1-(4-chloro-1H-pyrazol-5-yl)cyclopropane-1-carbonyl)-O-(4-(5,6,7,8-tetrahydro-1,8-naphthyridin-2-yl)butyl)-L-homoserine] |
